Reference: patent US9623021B2, “Nuclear receptor binding agents” (GTX, Inc., priority 2007, dated 2017)
Entries after “also recorded” stand apart in the source; their conditions may differ.

Experiments:
ovariectomized mice = test: Ovariectomy-induced obesity model (postmenopausal obesity); format: in vivo, female C57BL6 mice; conditions: OVX mice
Protocol: For the ovariectomy-induced obesity model, 6 week old female C57BL6 mice were sham operated or ovariectomized and the study was carried out for 9 weeks as indicated above.
Since it was shown that β-SERMs affected body composition in an animal model of high fat diet-induced obesity, they might also be effective in an animal model of postmenopausal obesity.

[1] = tested on: high fat diet fed C57BL6 mice; test: High fat diet induced obesity model, prevention studies (studies 1 and 2)
Protocol: Study A: C57BL6 male mice of 4 weeks of age were divided into different groups and were fed with a normal or high fat diet (Harlan, Ind.).
For the treatment study (study 3), the animals were maintained on the irrespective diets for 6 weeks and then treated daily as indicated for an additional 18 weeks. Biweekly body weights and food consumption were measured. The animals were sacrificed at the end of each study and blood and tissues were collected for RNA isolation, histology and protein estimation.
Cholesterol and leptin concentrations were measured in serum using ELISA-based methods.
Histology was performed on cryosections and stained with oil 0 red.
Oral glucose tolerance tests (OGTT) were performed on 16-h fasted mice. Mice were given 150 mg glucose by oral gavage through a gastric tube.
Six week old C57BL/6 mice were randomized, based on body weight, into three study groups as shown in the Study Parameters Table below.
The mice were treated for 12 weeks. Twice weekly, the body weight and feed consumption were measured.
A glucose tolerance test was also performed at the completion of the study by administering 150 mg glucose orally to the mice and measuring blood glucose levels at 0, 15, 30 and 60 minutes post glucose administration.
At sacrifice, the mice organ weights were measured and collected for histology, gene expression and protein expressions. Blood was collected for serum marker determination (cholesterol, glucose, leptin).
Dual energy X-ray absorptiometry (DEXA) was performed to measure the body composition in Study 1.
An MRI scan was performed at the beginning of the study, after 6 weeks and at the completion of the study.

C-26 colon cancer cells = test: C-26 colon cancer cell proliferation (3H thymidine incorporation); format: cell-based; conditions: treated for 3 days, FIG. 22
Protocol: (§1) The effects of treatment of an ER-β selective NRBA of this invention on cancer cell proliferation was examined using LNCaP prostate cancer cells and C-26 colon cancer cells. LNCaP or C-26 cells were plated in growth medium in 24 well and 6 well plates, respectively. LNCaP cells were treated for 6 days and C-26 cells were treated for 3 days at the indicated concentration. ^3H thymidine incorporation was measured at the end of treatment as an indicator of cell proliferation.

[2] = tested on: Ishikawa endometrial cells; test: Ishikawa growth assay (alkaline phosphatase); format: cell-based
Protocol: Ishikawa cells were plated at 15,000 cells/well in 24 well plates in DME:F12 (1:1)+5% csFBS w/o phenol red. The cells were maintained in this medium at 37° C. for 3 days. Medium was changed immediately prior to drug treatment for an additional 72 hrs. After 72 hrs, the cells were fixed with formalin and the amount of alkaline phosphatase (ALP) measured by para-nitrophenyl phosphate method.
This effect is one potential concern in the development of ER-α SERMs.

[3] = tested on: THP-1 macrophage cell adhesion to bEND-3 endothelial cells; test: Macrophage adhesion assay (LPS induced THP-1 adhesion to bEND-3 endothelial cells); format: cell-based; conditions: FIG. 13
Protocol: To determine the anti-inflammatory effects of ER-β NRBAs in vitro, a macrophage adhesion assay was performed. Macrophages adhere to endothelial cells due to elevated levels of pro-inflammatory cytokines. This principle was used in this assay to determine the effect of one of the ER-β NRBAs on bacterial lipopolysaccharide (LPS) induced THP-1 macrophage cell adhesion to bEND-3 endothelial cells.

ARPE-19 cells = test: Fluorescent detection of intracellular ROS in ARPE-19 cells (tBH oxidative stress); conditions: 150 μM tBH, FIG. 20B
[4] = tested on: LNCaP prostate cancer cells; test: LNCaP prostate cancer cell proliferation (3H thymidine incorporation); format: cell-based; conditions: treated for 6 days, FIG. 21
Protocol: as §1

SHP promoter = test: SHP promoter-luciferase in HEK-293 cells transfected with FXR and ER-β; format: cell-based; conditions: FXR and ER-β plasmids, FIG. 12E right panel
Protocol: FIG. 12 depict the effect of ER-β ligand on PPAR-γ function through ligand binding domain (LBD). (A). HEK-293 cells were transfected with 0.25 μg PPRE-LUC, 5 ng CMV-renilla LUC and the indicated receptors (PPAR-γ and ER-β for the left panel and PPAR-α and ER-β for the right panel). The cells were treated 24 hrs after transfection with the indicated ligands and harvested 48 hrs after transfection and firefly luciferase activity was measured and normalized to renilla luciferase. (B). H475 in ER-β LBD is important for its function. H475 in ER-β LBD was mutated to alanine (A) using a site directed mutagenesis kit. Transactivation assay was performed as described in panel A in HEK-293 cells with a titration of ER-β ligands in wild type or ER-β H475A. (C). […] HEK-293 cells were transfected with 0.25 μg PPRE-LUC, 5 ng CMV-renilla LUC and 50 ng of the indicated receptors (PPAR-γ or PPAR-γ and wild type ER-β or PPAR-γ and ER-β H475A). The cells were treated 24 hrs after transfection with the indicated ligands and harvested 48 hrs after transfection and firefly luciferase activity was measured and normalized to renilla luciferase. (D). […] HepG2 cells were transfected with 0.25 μg PPRE-LUC, 5 ng CMV-renilla LUC, 0.5 μg PGC-1 or vector backbone and 100 ng of the indicated receptors (PPAR-γ or PPAR-γ and wild type ER-β or PPAR-γ and ER-β H475A for top panels and PPAR-α or PPAR-α and ER-β for bottom panel). The cells were treated 24 hrs after transfection with the indicated ligands and harvested 48 hrs after transfection and firefly luciferase activity was measured and normalized to renilla luciferase. (E). SHP-1 is an ER-β specific target gene. HEK-293 cells were transfected with 0.25 μg SHP-LUC, 5 ng CMV-renilla LUC and 50 ng of the indicated receptors (FXR and ER-α for the left panel and FXR and ER-β for the right panel). The cells were treated 24 hrs after transfection with the indicated ligands and harvested 48 hrs after transfection and firefly luciferase activity was measured and normalized to renilla luciferase. […]

[5] = high fat diet, 30 mg/kg/day s.c., 12 weeks, FIG. 7
[6] = high fat diet, 30 mg/kg/day s.c., Study 2

## O=c1c2c(O)cc(O)cc2c(Br)cn1-c1ccc(O)cc1 [Compound 12u, 4-bromo-6,8-dihydroxy-2-(4-hydroxyphenyl)isoquinolin-1(2H)-one]
Ovariectomized mice; 9 weeks, FIG. 11A
  body weight gain: did not inhibit body weight gain
Ovariectomized mice; FIG. 11B
  feed consumption: increased the feed consumption
Ovariectomized mice; FIG. 11C left panel
  fat mass (MRI): completely prevented the increase in fat mass
Ovariectomized mice; FIG. 11C right panel
  lean mass (MRI): significantly increased lean mass
Ovariectomized mice; FIG. 11D
  WAT weight: completely inhibited the WAT accrued due to OVX
  uterine weight: without affecting uterine weight
[1]; 30 mg/kg/day s.c., 12 weeks, Study 2
  prevention of body weight increase caused by the high fat diet: more than 50%
[1]; [5]
  gastrocnemius muscle weight: increased gastrocnemius muscle weight
  white adipose tissue (WAT) weight: prevented the increase in the WAT weight; also recorded: comparably decreased WAT weight
[1]; [6]
  fat mass (MRI): reduce fat mass
  lean mass (MRI): increase muscle mass; also recorded: increased the lean mass
  prevention of the increase in body fat (MRI): more than 50%
[1]; high fat diet, 12 weeks, FIG. 9A
  testes weights: not altered
[1]; high fat diet, 12 weeks, FIG. 9B
  serum testosterone levels: did not affect; also recorded: not altered
[1]; high fat diet, 12 weeks, FIG. 9C
  serum follicle stimulating hormone (FSH): not altered
C-26 colon cancer cells
  growth of C-26 colon cancer cells: significantly inhibited the growth
[2]; FIG. 3C
  Ishikawa cell proliferation: weakly induce
[2]; highest concentration tested, ALP assay, 72 hrs
  concentration at which proliferation of Ishikawa cells was induced: 1 µM
[3]
  adhesion of 3H labeled THP-1 cells to bEND-3 cells: significantly inhibited the adhesion
ARPE-19 cells
  prevention of ROS formation / oxidative damage: did not seem to have any effect
[4]
  growth of LNCaP prostate cancer cells: significantly inhibited the growth
SHP promoter
  SHP activity: neither of the ligands activated SHP
